Laboratory results: US11999782B2, “Therapeutic agents for the treatment of diseases associated with undesired cell proliferation” (Fundació Privada Institutció Catalana de Recerca I Estudis …, priority 2009, dated 2024)

Key:
[1] = test system: normal human neuroprogenitors; assay: Self-renewal assay of normal human neuroprogenitor neurospheres; format: cell-based; details: 100 pM TGFβ1 or 20 ng/ml LIF, 7 days
Method: FIG. 8. Effect of TGFβ on the capacity of self-renewal of normal human neuroprogenitors. (A) Immunocytochemistry of the indicated markers was performed in human neuroprogenitor neurospheres. (B) Neurospheres of the sample of GBM1 and of human neuroprogenitors were incubated with the indicated members of the 100 pM TGFβ family for 3 hours and the mRNA levels of LIF were determined. (C, D) Neurosphere cells of normal human neuroprogenitors were incubated in the same conditions that have been described above in FIG. 1D in the presence of 100 pM TGFβ1 or 20 ng/ml LIF for 7 days and the number of newly formed neurospheres (C) and the number total of cells (D) were determined.
The U373MG and A172 cells were a generous gift from J. Rich and D. Bigner and were cultured in DMEM with 10% fetal bovine serum (FBS). The primary culture of tumor cells (PCTC) and the GBM neurospheres were generated as described (Bruna et al., (2007) Cancer Cell 11, 147-160; Gunther et al., (2008) Oncogene. May 1; 27(20):2897-909). Briefly, the samples of tumors were processed in the 30 minutes after the surgical resection. The ground pieces of the samples of human gliomas were digested with 200 U/ml collagenase I (Sigma) and 500 U/ml of DNase I (Sigma) in PBS for 2 hours at 37° C. and with constant vigorous stirring. The suspension of individual cells was filtered through a 70 μm cell filter (BD Falcon) and washed with PBS. Finally, the cells were resuspended and subsequently cultured in DMEM with 10% FBS, for the culture of PCTCs, or in neurosphere medium in the case of the GBM neurospheres. The neurospheres of normal human neuroprogenitors were generated from human embryonic cerebral cortex tissue (12-16 weeks after the conception) collected after voluntary abortions. The samples were processed and cultured as described (Poltavtseva et al. (2002) Brain Res Dev Brain Res 134, 149-154). The neurosphere medium consists of neurobasal medium (Gibco) supplemented with B27 (Gibco), L-glutamine (Gibco), penicillin/streptomycin, and growth factors (20 ng/mL EGF and 20 ng/mL FGF-2 (Peprotech)).
The self-renewal of the neurospheres was evaluated by seeding an identical number of cells at a very low density in wells of a 96-well plate. The cells were treated, in the absence of growth factors, with the indicated compounds and the total number of new neurospheres formed after 7 days in culture was counted (Lee et al. (2008) Cancer Cell 13, 69-80; Reynolds and Weiss, (1996) Dev Biol 175, 1-13; Seaberg and van der Kooy, (2002) J Neurosci 22, 1784-1793).
It was decided to assess whether this effect was specific to tumor cells or was also present in normal neuroprogenitor cells. To answer this question, neuroprogenitor cells were obtained from samples of human fetal cerebral cortex (from 12 to 16 weeks after conception). As has been previously described (Carpenter et al., 1999, Exp Neurol, 158: 265-278; Poltavtseva et al., 2002, Brain Res Dev Brain Res, 134: 149-154; Wright et al., 2003, J Neurochem, 86: 179-195), human neuroprogenitors generated neurospheres when they were grown in serum-free medium supplemented with EGF and FGF and these neurospheres expressed Musashi-1, Sox2 and Nestin similarly to GBM neurospheres (FIG. 8A). First, it was determined if TGFβ induced LIF in normal human neuroprogenitors. […] In fact, the neurospheres treated with TGFβ were smaller and the total number of cells had decreased due to the presence of TGFβ (FIG. 8C, 8D). On the other hand, LIF increased the number and size of the newly formed neurospheres as well as the total number of cells (FIG. 8C, 8D) according to previous articles (Bauer and Patterson, 2006; Wright et al., 2003). Thus, LIF has the same effect on the self-renewal in GBM and normal neurospheres. On the contrary, there is a difference in the effect of TGFβ on the capacity for self-renewal of normal and tumor neurospheres due to the incapacity of TGFβ to induce LIF normal in neuroprogenitors.

[2] = test system: LIF protein secretion; assay: Secreted LIF protein by ELISA in GBM1 neurospheres; format: cell-based, human; details: 48 hours, 100 pM TGFβ1
Method: FIG. 3. TGFβ induces the expression of LIF in PCTC and GBM neurospheres. (A) PCTC cells of the 11 samples of the indicated GEM (GBM1-11) were treated with 100 pM TGFβ1 for 3 hours in medium without serum or left untreated, and the expression levels of LIF were determined by means of qRT-PCR. The g-actin was determined as an internal normalization control. (B) GBM neurosphere cells were treated as in A and the expression levels of LIF were determined by means of qRT-PCR as in A. (C) GBM neurospheres were incubated with 100 pM TGFβ1 and/or 2 μM TβRI inhibitor for 3 hours in medium without serum and the mRNA levels of LIF were determined by means of qRT-PCR as in A. (D) GBM1 neurospheres were incubated with 100 pM TGFβ1, TGFβ2 and TGFβ3 for 3 hours in medium without serum and the mRNA levels of LIF were determined by means of qRT-PCR as in A. (E) The levels of LIF protein secreted were determined by means of ELISA in GBM1 neurospheres after 48 hours of treatment with 100 pM TGFβ1.
For the quantitative determination of the levels of LIF protein secreted to the medium, the human LIF ELISA kit (R&D Systems) was used, following the manufacturer's specifications. […]
It was decided to investigate the molecular mechanisms responsible for the effect of TGFβ on GICs. […] A panel of PCTCs derived from 11 different human GBMs was treated with TGFβ for 3 hours and the levels of LIF mRNA were determined.

Row | Substance | number of newly formed neurospheres (normal neuroprogenitors) [1] | size of neurospheres (normal neuroprogenitors) [1] | total number of cells (normal neuroprogenitors) [1] | secretion of the LIF protein (ELISA, conditioned neurosphere medium) [2]
1 | TGFβ: TGFβ1 (R&D Systems), used at 100 pM according to the figure legends | did not increase | smaller | decreased | increase in the secretion of the LIF protein
2 | LIF: recombinant leukemia inhibitory factor, an IL-6 type cytokine (Chemicon) | increased | increased | increased | 
